Data set [1] relates to Dutch Belted rabbit corneas. In words: Safety of glyceraldehyde in rabbits, slit lamp examination scores (Example 1). The class given is in vivo. To be noted: 500 IU hyaluronidase day 1, 3% glyceraldehyde 20 μL intrastromal day 8, then 1 drop three times a day, 50 days, control BSS. From the text: In this Example, the safety of treating Dutch Belted rabbit corneas with glyceraldehyde following administration of the corneal softening enzyme hyaluronidase was investigated. This study involved the use of five (5) pigmented Dutch Belted rabbits, two (2) in the control group and three (3) in the glyceraldehyde treated group.
All rabbits received a thorough slit lamp examination on the first day of the study to establish the baseline using the following technique. A Nikon FS-2 Slit Lamp was used for the examinations of the test animals. For each animal examined, the eyes were dilated by instilling one drop of 1.0% tropicamide (Bausch and Lomb, Tampa, Fla.) and 2.5% phenylephrine (Bausch and Lomb, Tampa, Fla.). The animal was then positioned in front of a slit lamp. The corneas of each animal were examined for edema and the surface area involved with edema was estimated. The anterior chambers of the animals were closely examined for chamber depth, aqueous cell and flare, and fibrin. The iris of each animal was examined for atrophy, symmetry, or synechiae. The lens was examined and cellular debris, capsule, or lens protein abnormalities were noted if present. The vitreous humor of each animal were then examined for the presence of cells or other abnormnalities. […]

Data set [2] has as its system Dutch Belted rabbit corneal epithelium. In words: Corneal scraping, rate of re-epithelialization (Example 2). The class given is in vivo. Conditions: rabbits; scraping on Study Day 71 after 63 days of drops; examined 1, 2, 3 days post-scraping; vs BSS. How it is done: On Study Day 71 (following 63 days of drops), corneal scrapings were performed as follows. Photographs of the uninstrumented eyes were taken after fluorescein staining. Fluorescein staining was performed as described in Example 1. The examined animals were then placed under general anesthesia using ketamine/xylazine also as described in Example 1. Two (2) drops of proparacaine were instilled into both eyes of the examined animal as an anesthetic. The animal to be examined was then placed on an examination table with one eye gently proptosed. A 10×15 mm strip of epithelium from the central cornea was denuded with a sterile #11 scalpel blade (Feather Safety Razor Co., Ltd., Japan). The examined animal was then returned to the slit lamp, topical fluorescein was applied, and the eye was photographed. The animals were examined for reepithelialization at 1, 2, and 3 days post-scraping. Photographs were taken and the rate of re-epithelialization was determined and documented.

From patent publication US6537545B1, “Use of corneal hardening agents in enzymeorthokeratology” (ISTA Pharmaceuticals, Inc., priority 1998, dated 2003) come the findings set out here.

As for `O=CC(O)CO` (centres unmarked) [glyceraldehyde], in data set [1], the “clinical observations (slit lamp scores), statistical analysis vs control group” value is “no differences between the groups”. In addition, the “healing rate of scraped corneas (re-epithelialization)” value in data set [2] is listed as “healed at a rate equivalent to those of the control”.
